Measurements taken from ChEMBL document CHEMBL1201862, “PubChem BioAssay data set” (2004).
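Five concentrations, 48 hours, 96-well plates. GI50: concentration for 50% inhibition of growth.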 Active and inactive are the calls of the source. Rule as the data show it: active = GI50 up to about 1.1 µM and inactive = higher.

Assays:
Experiment in all cases: NCI-60 cell line screen, 48 h
[1] = tested on: HOP-92
[2] = tested on: SN12C
[3] = tested on: CAKI-1
[4] = tested on: SF-539
[5] = tested on: DLD-1
[6] = tested on: SK-OV-3
[7] = tested on: HL-60
[8] = tested on: M14
[9] = tested on: SK-MEL-5
[10] = tested on: K562
[11] = tested on: Malme-3M
[12] = tested on: MOLT-4
[13] = tested on: UACC-257
[14] = tested on: NCI-H460
[15] = tested on: SK-MEL-2
[16] = tested on: OVCAR-8
[17] = tested on: PC-3
[18] = tested on: Hs-578T
[19] = tested on: MDA-MB-231
[20] = tested on: BT-549

| SMILES | GI50 [1] | GI50 [2] | GI50 [3] | GI50 [4] | GI50 [5] | GI50 [6] | GI50 [7] | GI50 [8] | GI50 [9] | GI50 [10] | GI50 [11] | GI50 [12] | GI50 [13] | GI50 [14] | GI50 [15] | GI50 [16] | GI50 [17] | GI50 [18] | GI50 [19] | GI50 [20] |
| --- | --- | --- | --- | --- | --- | --- | --- | --- | --- | --- | --- | --- | --- | --- | --- | --- | --- | --- | --- | --- |
| Cc1nc(O)nc(CC(O)(c2ccccc2)c2ccccc2)c1-c1ccccc1 | 55.8 µM (inactive) | > 100 µM (inactive) | > 100 µM (inactive) | > 100 µM (inactive) | > 100 µM (inactive) | > 100 µM (inactive) | > 100 µM (inactive) | > 100 µM (inactive) | > 100 µM (inactive) | > 100 µM (inactive) | > 100 µM (inactive) | > 100 µM (inactive) | > 100 µM (inactive) | > 100 µM (inactive) | > 100 µM (inactive) | > 100 µM (inactive) | – | – | – | – |
| CC[C@@]1(OC(=O)CCC(=O)O)C(=O)OCc2c1cc1n(c2=O)Cc2cc3ccccc3nc2-1 | 1.29 µM (inactive) | 0.0333 µM (active) | 0.0309 µM (active) | 0.0281 µM (active) | 1.58 µM (inactive) | 0.23 µM (active) | 0.0313 µM (active) | 0.0556 µM (active) | 0.127 µM (active) | 0.36 µM (active) | 0.467 µM (active) | < 0.01 µM (active) | 0.254 µM (active) | < 0.01 µM (active) | 1.85 µM (inactive) | 0.137 µM (active) | 0.239 µM (active) | 14.6 µM (inactive) | 3.86 µM (inactive) | 0.484 µM (active) |
| N#Cc1ccc(Nc2cnc3cc(N)ccc3n2)cc1 | 54.5 µM (inactive) | 89.1 µM (inactive) | 66.5 µM (inactive) | > 100 µM (inactive) | > 100 µM (inactive) | > 100 µM (inactive) | 14.9 µM (inactive) | > 100 µM (inactive) | > 100 µM (inactive) | 28.3 µM (inactive) | > 100 µM (inactive) | 41.7 µM (inactive) | > 100 µM (inactive) | 58.1 µM (inactive) | > 100 µM (inactive) | > 100 µM (inactive) | – | – | – | – |
| CC1(O)CC2(O)C=CC3=C(C(=O)c4cccc(O)c4C3=O)C2(O)C(=O)C1O (stereo not given) | 1.07 µM (active) | 3.28 µM (inactive) | 0.91 µM (active) | 5.5 µM (inactive) | 0.791 µM (active) | 15.2 µM (inactive) | 0.478 µM (active) | 1.37 µM (inactive) | 3.3 µM (inactive) | 0.94 µM (active) | 0.406 µM (active) | 0.56 µM (active) | 1.25 µM (inactive) | 15.6 µM (inactive) | 4.18 µM (inactive) | 3.56 µM (inactive) | 6 µM (inactive) | 3.1 µM (inactive) | 3.31 µM (inactive) | 1.17 µM (inactive) |
| COC(=O)c1ccc(C(=O)OC)c2nc3cc(Cl)ccc3nc12 | > 100 µM (inactive) | > 100 µM (inactive) | > 100 µM (inactive) | > 100 µM (inactive) | > 100 µM (inactive) | > 100 µM (inactive) | > 100 µM (inactive) | > 100 µM (inactive) | > 100 µM (inactive) | > 100 µM (inactive) | > 100 µM (inactive) | > 100 µM (inactive) | > 100 µM (inactive) | > 100 µM (inactive) | > 100 µM (inactive) | > 100 µM (inactive) | – | – | – | – |
| COc1cc(C2c3cc4c(cc3[C@@H](Nc3cccc(O)c3)C3COC(=O)[C@H]23)OCO4)cc(OC)c1O (stereo not given in full) | 1.32 µM (inactive) | 1.55 µM (inactive) | – | 1.14 µM (inactive) | 3.56 µM (inactive) | 4.61 µM (inactive) | 0.445 µM (active) | 2.79 µM (inactive) | 1.7 µM (inactive) | 1.69 µM (inactive) | 2.3 µM (inactive) | 0.0359 µM (active) | 2.05 µM (inactive) | 0.0726 µM (active) | 5.2 µM (inactive) | 2 µM (inactive) | 2.14 µM (inactive) | – | 5.42 µM (inactive) | 1.91 µM (inactive) |
| CCCC/C=C1\CCC(CN2CCCC2)C1=O (stereo not given) | 12.1 µM (inactive) | 17.9 µM (inactive) | > 10 µM (inactive) | 16.1 µM (inactive) | 3.76 µM (inactive) | 28.5 µM (inactive) | 8.61 µM (inactive) | 11.2 µM (inactive) | 17.3 µM (inactive) | 2.71 µM (inactive) | 17.8 µM (inactive) | 3.57 µM (inactive) | 18.1 µM (inactive) | 19.9 µM (inactive) | 16 µM (inactive) | 15.1 µM (inactive) | – | – | – | – |
| N=C(NNS(=O)(=O)c1ccccc1)Oc1ccc(Br)cc1Br | 44.8 µM (inactive) | > 100 µM (inactive) | > 100 µM (inactive) | > 100 µM (inactive) | > 100 µM (inactive) | > 100 µM (inactive) | 92.7 µM (inactive) | > 100 µM (inactive) | > 100 µM (inactive) | 90.6 µM (inactive) | > 100 µM (inactive) | > 100 µM (inactive) | > 100 µM (inactive) | > 100 µM (inactive) | > 100 µM (inactive) | > 100 µM (inactive) | – | – | – | – |
| CCOC(=O)NC(=O)c1cn(CCCOC(=O)CCCCCCCCC(=O)OCCCn2cc(C(=O)NC(=O)OCC)c(=O)n(C)c2=O)c(=O)n(C)c1=O | > 59 µM (inactive) | > 100 µM (inactive) | > 69 µM (inactive) | > 68.7 µM (inactive) | > 100 µM (inactive) | > 100 µM (inactive) | > 77.8 µM (inactive) | > 100 µM (inactive) | > 100 µM (inactive) | > 100 µM (inactive) | > 100 µM (inactive) | > 100 µM (inactive) | > 100 µM (inactive) | > 100 µM (inactive) | 97.1 µM (inactive) | > 79.4 µM (inactive) | > 100 µM (inactive) | > 100 µM (inactive) | – | > 100 µM (inactive) |
| OCCN(CCO)c1ncnc2c1sc(=S)n2-c1ccccc1 | > 100 µM (inactive) | > 100 µM (inactive) | > 100 µM (inactive) | > 100 µM (inactive) | > 100 µM (inactive) | > 100 µM (inactive) | > 100 µM (inactive) | > 100 µM (inactive) | > 100 µM (inactive) | > 100 µM (inactive) | > 100 µM (inactive) | > 100 µM (inactive) | > 100 µM (inactive) | > 100 µM (inactive) | > 100 µM (inactive) | > 100 µM (inactive) | – | – | – | – |
| C/C(=N\NC(=N)N)C(CN1CCOCC1)C(c1ccccc1)c1c(O)c2ccccc2oc1=O (stereo not given) | 25.7 µM (inactive) | > 100 µM (inactive) | > 100 µM (inactive) | 77.6 µM (inactive) | > 100 µM (inactive) | > 100 µM (inactive) | 49.1 µM (inactive) | > 100 µM (inactive) | > 100 µM (inactive) | > 100 µM (inactive) | 25.9 µM (inactive) | 66.2 µM (inactive) | > 100 µM (inactive) | > 100 µM (inactive) | > 100 µM (inactive) | > 100 µM (inactive) | – | – | – | – |
| N#CC1=C(N)Oc2c(ccc3cccnc23)C1c1ccccc1 (stereo not given) | 9.35 µM (inactive) | 3.3 µM (inactive) | 0.619 µM (active) | 1.25 µM (inactive) | 2.3 µM (inactive) | 0.731 µM (active) | 0.267 µM (active) | 0.57 µM (active) | 0.811 µM (active) | 0.396 µM (active) | 15.2 µM (inactive) | 0.667 µM (active) | 3.61 µM (inactive) | 0.738 µM (active) | 0.296 µM (active) | 3.38 µM (inactive) | – | – | – | – |
